Assays:
[1] = test system: AML cell lines Kasumi-1, SKM-1 and MOLM-13; assay: Live cell counts by flow cytometry (DAPI exclusion), AML cell lines; format: cell-based; conditions: for cell numbers (dose dependent decline): day 3, 0.46-3000 nM dosed at 0, 24 and 48 hours
Description: (§1) Number of live cells was determined by excluding DAPI+ dead cells in each well. Average of triplicates is presented on the graph.
(§2) SKM1, Kasumi-1 and MOLM-13 cell lines were maintained in 80% RPMI 1640+20% FBS according to manufacturer's instructions. Logarithmically growing SKM1, Kasumi-1 and MOLM-13 cell lines were plated at 7,500 cells per well in 384 well microtiter plates and treated with drugs in triplicate using an acoustic liquid handler using protocol (P.SOP.007.02_Compound Addition Using GBG).
(§3) The following compounds were serially dosed in 24-hour intervals using an acoustic liquid handler. Decitabine, 5-azacytidine and guadecitabine were dosed at 3000, 1000, 333.33, 111.11, 37.04, 12.35, 4.12, 1.37 and 0.46 nM at 0, 24 and 48 hours. In addition, guadecitabine was dosed at 3000, 1000, 333.33, 111.11, 37.04, 12.35, 4.12, 1.37 and 0.46 nM at 0 hours without serial dosing (single dose). The dose range of the compounds was determined by back calculating the clinical dose and corresponding to a plasma concentration at 1.5 hours after standard dosing. The 1000 nM concentration of decitabine is based on the clinical dose of 20 mg/m^2, 1-hour intravenous infusion, one time per day for five consecutive days every 4 weeks and the maximum plasma concentration after standard dosing (1.15 micromolar). Decitabine doses in the study were selected above and below this dose. The 1000 nM concentration of 5-azacytidine is based on the clinical dose of 75 mg/m^2/day for 7 days every 28 days and the plasma concentration at 1.5 hours after standard dosing. 5-Azacytidine doses in the study were selected above and below this dose. Guadecitabine regimen is 60 mg/m^2 given subcutaneously daily on Days 1-5 in 28-day cycles (delayed as needed to allow blood count recovery). The clinically relevant guadecitabine dose is 211 nM. Cells were stained at day 0, day 3 and day 7 following cell plating samples were stained with the antibody panel details below and readout with an lntellicyt iQue Plus flow cytometer.
(§4) Cells were stained using Notable labs no wash protocol number (P.SOP.009.01_Screen Readout Automated), briefly, antibodies are added to cells with an acoustic liquid handler, incubated at 4° C. for 20 minutes and readout with an Intellicyt iQue Plus flow cytometer. Staining Panel for Cell lines: DAPI, CD123, PDL1, CD34, CD33, CD15, CD38. Live cells were gated using FSC/SSC and DAPI exclusion using FlowJo analysis software (BeckmanFLow), and then further defined by cell surface marker expression. Absolute counts or Mean Fluorescence Intensity from triplicate wells were averaged and fold change was calculated with respect to a vehicle-only (DMSO) control.

[2] = test system: CD34+CD38+ Multipotent progenitors (MMPs) and CD34+CD38− Hematopoietic Stem Cells (HSCs); assay: Live cell counts by flow cytometry, normal donor CD34+ bone marrow cells; conditions: for cell counts (dose dependent decline): primary MMPs and HSCs, 0.46-3000 nM
Description: as §1
CD34 enriched bone marrow was purchase from AllCells. Fresh (never frozen) cells were plated at 15,000 cells per well in 384 well microtiter plates and treated with drugs in triplicate using an acoustic liquid handler. The following compounds were dosed serial in 24-hour intervals: decitabine, guadecitabine and 5-azacytidine were dosed at 3000, 1000, 333.33, 111.11, 37.04, 12.35, 4.12, 1.37 and 0.46 nM at 0, 24 and 48 hours. In addition, auadecitabine was dosed at 3000, 1000, 333.33, 111.11, 37.04, 12.35, 4.12, 1.37 and 0.46 nM at 0 hours without serial dosing (single dose). Cells were stained at day 0 and day 7 following cell plating samples were stained with the antibody panel details below and readout with an Intellicyt iQue Plus flow cytometer. Cells were stained using Notable labs staining protocol number (P.SOP.009.01_Screen Readout Automated). Staining Panel for Healthy CD34+ Bone Marrow: DAPI, CD45, CD3, CD19, CD16, CD14, CD38, CD33, CD34, CD90, CD123, CD274. Live cells were gated using FSC/SSC and DAPI exclusion using FlowJo analysis software (Beckman Flow), and then further defined by cell surface marker expression. Absolute counts from triplicate wells were averaged and normalized to a vehicle-only (DMSO) control.

AML cells = assay: CD123 expression in AML cells quantitated by fluorescence-activated cell sorting; format: cell-based
SKM1 cell line = assay: CD123 MFI by flow cytometry, SKM1; format: cell-based; conditions: for CD123 expression at clinically relevant dose (FIG. 2c): 1000 nM; for CD123 MFI (dose dependent increase): SKM1, 0.46-3000 nM, day 7
Description: (§5) (c) Fold change in CD123 MFI at 1000 nM clinically relevant decitabine dose (P values are calculated by student Test). Cells are gated on live cells. Blast cells in AML cell lines were defined as CD33 or CD34 positive. Primary HSCs were defined as CD45^dimSSC^lowCD34^highCD38− and multipotent progenitors were defined as CD34^highCD38+, data represents mean of four normal donors and the error bars represent Standard deviation. Fold change in CD123 Mean Fluorescence Intensity (MFI) with respect to DMSO treated cells is presented.
as §2, §3, §4

[3] = test system: Hematopoietic stem cells (HSCs); assay: CD123 expression by flow cytometry, primary hematopoietic stem cells; format: cell-based; conditions: for CD123 expression at clinically relevant dose (FIG. 2c): HSC; for increase in CD123 expression vs DMSO: HSCs
Source text: as §5, with “(c) Fold change in CD123 MFI at 1000 nM clinically relevant decitabine dose (P values are calculated by student Test).” left out
(§6) CD34 enriched bone marrow was purchase from AllCells.

CD38+CD34+ MMPs = assay: CD123 expression by flow cytometry, primary multipotent progenitors; format: cell-based; conditions: for average increase in CD123 expression vs DMSO / CD123 expression at clinically relevant dose (FIG. 2c): MMPs
Source text: as §5, with “(c) Fold change in CD123 MFI at 1000 nM clinically relevant decitabine dose (P values are calculated by student Test).” left out
as §6

[4] = test system: primary CD34+ Bone marrow cells; assay: CD123 MFI by flow cytometry, primary CD34+ bone marrow cells (overall); format: cell-based; conditions: for CD123 MFI / expression in primary bone marrow cells: four normal donors, dose range
Description: as §5, §6

[5] = test system: PD-L1 expression in AML cell lines and primary bone marrow HSCs/MMPs; assay: PD-L1 expression by flow cytometry, AML cell lines and primary bone marrow cells; format: cell-based; conditions: any dose; all cell lines and primary bone marrow HSCs or MMPs
Source text: Cells are gated on live cells. Blast cells in AML cell lines were defined as CD33 or CD34 positive. Primary HSCs were defined as CD45^dimSSC^lowCD34^highCD38− and multipotent progenitors were defined as CD34^highCD38+, data represents mean of four normal donors and the error bars represent Standard deviation.
as §2
(§7) The following compounds were serially dosed in 24-hour intervals using an acoustic liquid handler. Decitabine, 5-azacytidine and guadecitabine were dosed at 3000, 1000, 333.33, 111.11, 37.04, 12.35, 4.12, 1.37 and 0.46 nM at 0, 24 and 48 hours. […] The dose range of the compounds was determined by back calculating the clinical dose and corresponding to a plasma concentration at 1.5 hours after standard dosing. […] Cells were stained at day 0, day 3 and day 7 following cell plating samples were stained with the antibody panel details below and readout with an lntellicyt iQue Plus flow cytometer.
Cells were stained using Notable labs no wash protocol number (P.SOP.009.01_Screen Readout Automated), briefly, antibodies are added to cells with an acoustic liquid handler, incubated at 4° C. for 20 minutes and readout with an Intellicyt iQue Plus flow cytometer. […] Absolute counts or Mean Fluorescence Intensity from triplicate wells were averaged and fold change was calculated with respect to a vehicle-only (DMSO) control.
CD34 enriched bone marrow was purchase from AllCells. […] Cells were stained at day 0 and day 7 following cell plating samples were stained with the antibody panel details below and readout with an Intellicyt iQue Plus flow cytometer. Cells were stained using Notable labs staining protocol number (P.SOP.009.01_Screen Readout Automated). […]

AML patients = test system: AML patients
Description: Fifteen AML patients treated in our ongoing first in human phase 1 clinical trial (NCT0262355) evaluating CD123CAR T cells in patients with relapsed or refractory AML or blastic plasmacytoid dendritic cell neoplasm (BPDCN) received lymphodepletion prior to CAR T cell infusion on day 0. All received fludarabine (25-30 mg/m2/day) and cyclophosphamide (300-500 mg/m2/day). Both were administered daily from days −5 to −3. Eight also received decitabine (20 mg/m2/day) given daily for 5 days from days −7 to −3 or daily for 3 days from days −5 to −3.

AML blasts = conditions: in vitro; reported; cited from earlier work
[6] = clinical dose 20 mg/m^2, 1-hour intravenous infusion, once per day for five consecutive days every 4 weeks; cited from earlier work
Kasumi-1 = assay: CD123 MFI by flow cytometry, Kasumi-1; format: cell-based; conditions: 0.46-3000 nM, day 7
Description: as §5
(§8) SKM1, Kasumi-1 and MOLM-13 cell lines were maintained in 80% RPMI 1640+20% FBS according to manufacturer's instructions. […]
as §7, with “handler.” for “handler. Decitabine, 5-azacytidine and guadecitabine were dosed at 3000, 1000, 333.33, 111.11, 37.04, 12.35, 4.12, 1.37 and 0.46 nM at 0, 24 and 48 hours.”
(§9) Cells were stained using Notable labs no wash protocol number (P.SOP.009.01_Screen Readout Automated), briefly, antibodies are added to cells with an acoustic liquid handler, incubated at 4° C. for 20 minutes and readout with an Intellicyt iQue Plus flow cytometer. […]

MOLM-13 = assay: CD123 MFI by flow cytometry, MOLM-13; format: cell-based; conditions: 0.46-3000 nM, day 7
Description: as §5, §8
as §7, with “handler.” for “handler. Decitabine, 5-azacytidine and guadecitabine were dosed at 3000, 1000, 333.33, 111.11, 37.04, 12.35, 4.12, 1.37 and 0.46 nM at 0, 24 and 48 hours.”
as §9

[7] = 5 day treatment, decitabine p<0.001, azacitidine p<0.05

Structure (SMILES) | CD123 expression in AML cells (AML cells; [7]) | cell numbers (dose dependent decline) [1] | cell counts (dose dependent decline) [2] | CD123 expression at clinically relevant dose (FIG. 2c) (SKM1 cell line) | CD123 MFI (dose dependent increase) (SKM1 cell line) | CD123 expression at clinically relevant dose (FIG. 2c) ([3]; 1000 nM) | CD123 expression at clinically relevant dose (FIG. 2c) (CD38+CD34+ MMPs; 1000 nM) | CD123 MFI / expression in primary bone marrow cells [4] | PD-L1 expression [5] | other results
CN[C@@H]1C[C@H]2O[C@@](C)([C@@H]1OC)n1c3ccccc3c3c4c(c5c6ccccc6n2c5c31)C(=O)NC4 [Staurosporine] | – | – | – | – | – | – | – | – | – | viable cells ([1]; positive control for cell death, all cell line groups): significant reductions; viable cells ([2]; positive control for cell death, primary cell groups): significant reductions
Nc1ncn([C@H]2C[C@H](O)[C@@H](CO)O2)c(=O)n1 [decitabine] | significant increase | dose dependent decline | dose dependent decline | significantly enhanced | upregulates | significantly enhanced | significantly enhanced | upregulates | no impact | CD123 expression in AML cells (AML cells; 3 day treatment, p<0.001): significant increase; cell death at high dose ([2]; 3000 nM, FIG. 1b): cell death; CD123 MFI (dose dependent increase) (SKM1 cell line; listed as Decitabine): dose dependent increase; increase in CD123 expression vs DMSO ([3]; 111.11 nM): 1.3 fold; increase in CD123 expression vs DMSO ([3]; 333.33 nM): 1.6 fold; increase in CD123 expression vs DMSO ([3]; 1000 nM): 1.4 fold; average increase in CD123 expression vs DMSO (CD38+CD34+ MMPs; 111.11 nM): 1.4 fold; average increase in CD123 expression vs DMSO (CD38+CD34+ MMPs; 333.33 nM): 1.4 fold; average increase in CD123 expression vs DMSO (CD38+CD34+ MMPs; 1000 nM): 1.3 fold; CD123 MFI with respect to DMSO treated cells ([4]; 3000 nM, FIG. 2b): no change; CD123 MFI in primary CD34+ bone marrow cells ([4]; clinically relevant dose of 1000 nM): increase; treatment related adverse events in decitabine treated group (AML patients; 8 patients with decitabine vs 7 without): not observed increased treatment related adverse events; tolerability / dose limiting toxicities (AML patients; AML patients, fludarabine and cyclophosphamide lymphodepletion, eight also decitabine 20 mg/m2/day, CAR T infusion day 0): well tolerated; CD123 expression in AML blasts (AML blasts): upregulate; maximum plasma concentration after standard dosing [6]: 1.15 µM
Nc1ncn([C@H]2C[C@H](OP(=O)(O)OC[C@H]3O[C@@H](n4cnc5c(=O)[nH]c(N)nc54)C[C@@H]3O)[C@@H](CO)O2)c(=O)n1 [guadecitabine] | – | dose dependent decline | – | significantly enhanced | increase in CD123 MFI in a dose dependent manner | significantly enhanced | significantly enhanced | – | no impact | change in CD123 expression ([3]; normal bone marrow HSCs, regardless of the dose): did not show any change; change in CD123 expression (CD38+CD34+ MMPs; normal bone marrow MMPs, regardless of the dose): did not show any change
Nc1ncn([C@@H]2O[C@H](CO)[C@@H](O)[C@H]2O)c(=O)n1 [5-azacytidine] | significant increase | dose dependent decline | dose dependent decline | – | did not impact | – | – | highly variable | no impact | CD123 MFI (dose dependent increase) (Kasumi-1): did not impact; CD123 MFI (dose dependent increase) (MOLM-13): did not impact
